Experimental data: article PMC9898036, “VIP152 is a selective CDK9 inhibitor with pre-clinical in vitro and in vivo efficacy in chronic lymphocytic leukemia” (Leukemia, 2022)

How the values were obtained:
[1] = target: AKT2 (Homo sapiens, UniProt P31751); experiment: KINOMEscan: AKT2; assay type: binding; conditions: 1000 nM, read-out: Percent Control
[2] = target: WNK3 (Homo sapiens, UniProt Q9BYP7); experiment: KINOMEscan: WNK3; assay type: binding; conditions: 100 nM, read-out: Percent Control
[3] = target: SYK (Homo sapiens, UniProt P43405); experiment: KINOMEscan: SYK; assay type: binding; conditions: 100 nM, read-out: Percent Control
[4] = target: Adrenergic α1B (Rattus norvegicus, UniProt P15823); experiment: Eurofins Diversity Panel; assay type: binding; conditions: Conc. 10 μM
[5] = target: MEK2 (Homo sapiens, UniProt P36507); experiment: KINOMEscan: MEK2; assay type: binding; conditions: 1000 nM, read-out: Percent Control
Sequence of MEK2 (P36507 whole entry): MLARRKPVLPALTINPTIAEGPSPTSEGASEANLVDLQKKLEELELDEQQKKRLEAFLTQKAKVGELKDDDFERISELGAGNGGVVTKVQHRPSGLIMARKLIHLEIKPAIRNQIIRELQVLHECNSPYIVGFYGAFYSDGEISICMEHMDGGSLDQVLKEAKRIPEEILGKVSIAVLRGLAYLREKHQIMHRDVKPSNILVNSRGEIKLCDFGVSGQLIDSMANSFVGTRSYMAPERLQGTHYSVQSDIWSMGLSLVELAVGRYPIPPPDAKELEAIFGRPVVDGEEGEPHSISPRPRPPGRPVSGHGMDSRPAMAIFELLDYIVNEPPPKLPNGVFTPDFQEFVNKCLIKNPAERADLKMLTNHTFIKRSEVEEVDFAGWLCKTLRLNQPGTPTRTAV

[6] = test system: Sodium Channel, Site 2; experiment: Eurofins Diversity Panel; assay type: binding; conditions: rat, Conc. 10 μM
[7] = target: LIMK2 (Homo sapiens, UniProt P53671); experiment: KINOMEscan: LIMK2; assay type: binding; conditions: 1000 nM, read-out: Percent Control
[8] = target: GSK3α (Homo sapiens, UniProt P49840); experiment: NanoBRET target engagement assay (HEK293); assay type: cell-based
[9] = test system: treatment-naïve primary CLL samples; experiment: Annexin V/propidium iodide flow cytometry; assay type: cell-based; conditions: Homo sapiens; 10 treatment-naïve samples; read-out: IC50 (cytotoxic activity)
[10] = target: EGFR(G719C) (Homo sapiens, UniProt P00533, G719C); experiment: KINOMEscan: EGFR(G719C); assay type: binding; conditions: 1000 nM, read-out: Percent Control
[11] = target: TYRO3 (Homo sapiens, UniProt Q06418); experiment: KINOMEscan: TYRO3; assay type: binding; conditions: 100 nM, read-out: Percent Control
[12] = target: EGFR(L858R,T790M) (Homo sapiens, UniProt P00533, L858R/T790M); experiment: KINOMEscan: EGFR(L858R,T790M); assay type: binding; conditions: 1000 nM, read-out: Percent Control
[13] = target: STK16 (Homo sapiens, UniProt O75716); experiment: KINOMEscan: STK16; assay type: binding; conditions: 100 nM, read-out: Percent Control
Sequence of STK16 (O75716 whole entry): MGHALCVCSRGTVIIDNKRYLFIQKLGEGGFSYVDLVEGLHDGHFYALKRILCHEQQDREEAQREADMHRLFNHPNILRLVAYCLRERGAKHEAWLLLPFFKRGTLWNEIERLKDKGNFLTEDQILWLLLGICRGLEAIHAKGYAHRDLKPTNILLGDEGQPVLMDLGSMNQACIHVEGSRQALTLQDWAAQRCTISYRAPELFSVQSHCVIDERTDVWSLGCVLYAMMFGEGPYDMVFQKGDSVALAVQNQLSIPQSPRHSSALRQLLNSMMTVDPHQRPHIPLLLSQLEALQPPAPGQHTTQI

[14] = target: Interleukin IL-1 (Mus musculus, UniProt P13504); experiment: Eurofins Diversity Panel; assay type: binding; conditions: Conc. 10 μM
[15] = target: MRCKA (Homo sapiens, UniProt Q5VT25); experiment: KINOMEscan: MRCKA; assay type: binding; conditions: 1000 nM, read-out: Percent Control
[16] = target: KIT(V559D,V654A) (Homo sapiens, UniProt P10721, V559D/V654A); experiment: KINOMEscan: KIT(V559D,V654A); assay type: binding; conditions: 1000 nM, read-out: Percent Control
[17] = target: CSNK1A1 (Homo sapiens, UniProt P48729); experiment: KINOMEscan: CSNK1A1; assay type: binding; conditions: 1000 nM, read-out: Percent Control
Sequence of CSNK1A1 (P48729 whole entry): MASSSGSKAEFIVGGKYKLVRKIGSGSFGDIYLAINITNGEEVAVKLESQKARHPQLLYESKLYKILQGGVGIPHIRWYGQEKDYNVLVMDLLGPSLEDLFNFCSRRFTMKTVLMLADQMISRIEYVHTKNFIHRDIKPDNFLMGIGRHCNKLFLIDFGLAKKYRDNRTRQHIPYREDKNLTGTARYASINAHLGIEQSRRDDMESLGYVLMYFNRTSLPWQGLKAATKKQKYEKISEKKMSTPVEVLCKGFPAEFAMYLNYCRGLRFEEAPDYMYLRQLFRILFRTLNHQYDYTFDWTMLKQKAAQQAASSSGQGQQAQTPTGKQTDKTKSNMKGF

[18] = test system: TP53 R175H and R248Q mutated HG-3 cell lines; experiment: Annexin V/propidium iodide flow cytometry; assay type: cell-based, human; conditions: 24, 48, and 72 h
[19] = target: GRK3 (Homo sapiens, UniProt P35626); experiment: KINOMEscan: GRK3; assay type: binding; conditions: 1000 nM, read-out: Percent Control
[20] = target: RPS6KA5(Kin.Dom.2-C-terminal) (Homo sapiens, UniProt O75582); experiment: KINOMEscan: RPS6KA5(Kin.Dom.2-C-terminal); assay type: binding; conditions: 100 nM, read-out: Percent Control
[21] = target: CDK11 (Homo sapiens, UniProt Q9BWU1); experiment: KINOMEscan: CDK11; assay type: binding; conditions: 1000 nM, read-out: Percent Control
[22] = target: CAMK2B (Homo sapiens, UniProt Q13554); experiment: KINOMEscan: CAMK2B; assay type: binding; conditions: 1000 nM, read-out: Percent Control
[23] = target: RIPK4 (Homo sapiens, UniProt P57078); experiment: KINOMEscan: RIPK4; assay type: binding; conditions: 100 nM, read-out: Percent Control
[24] = target: CAMK1B (Homo sapiens, UniProt Q6P2M8); experiment: KINOMEscan: CAMK1B; assay type: binding; conditions: 1000 nM, read-out: Percent Control
Sequence of CAMK1B (Q6P2M8 whole entry): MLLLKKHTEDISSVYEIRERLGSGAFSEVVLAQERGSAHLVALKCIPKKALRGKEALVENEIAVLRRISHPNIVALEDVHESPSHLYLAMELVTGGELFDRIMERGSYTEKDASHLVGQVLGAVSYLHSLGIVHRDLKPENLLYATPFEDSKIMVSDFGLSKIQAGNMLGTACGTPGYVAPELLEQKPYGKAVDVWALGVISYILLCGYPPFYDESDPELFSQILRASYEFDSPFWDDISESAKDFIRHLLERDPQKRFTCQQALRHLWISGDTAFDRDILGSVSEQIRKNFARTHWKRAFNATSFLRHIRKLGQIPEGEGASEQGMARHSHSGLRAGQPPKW

[25] = target: CDC2L1 (Homo sapiens, UniProt P21127); experiment: KINOMEscan: CDC2L1; assay type: binding; conditions: 1000 nM, read-out: Percent Control
[26] = target: RSK1(Kin.Dom.2-C-terminal) (Homo sapiens, UniProt Q15418); experiment: KINOMEscan: RSK1(Kin.Dom.2-C-terminal); assay type: binding; conditions: 100 nM, read-out: Percent Control
[27] = target: Histamine H3 (Homo sapiens, UniProt Q9Y5N1); experiment: Eurofins Diversity Panel; assay type: binding; conditions: hum, Conc. 10 μM
[28] = target: EGFR(E746-A750del) (Homo sapiens, UniProt P00533, DEL746-750); experiment: KINOMEscan: EGFR(E746-A750del); assay type: binding; conditions: 1000 nM, read-out: Percent Control
[29] = target: CAMK1G (Homo sapiens, UniProt Q96NX5); experiment: KINOMEscan: CAMK1G; assay type: binding; conditions: 1000 nM, read-out: Percent Control
Sequence of CAMK1G (Q96NX5 whole entry): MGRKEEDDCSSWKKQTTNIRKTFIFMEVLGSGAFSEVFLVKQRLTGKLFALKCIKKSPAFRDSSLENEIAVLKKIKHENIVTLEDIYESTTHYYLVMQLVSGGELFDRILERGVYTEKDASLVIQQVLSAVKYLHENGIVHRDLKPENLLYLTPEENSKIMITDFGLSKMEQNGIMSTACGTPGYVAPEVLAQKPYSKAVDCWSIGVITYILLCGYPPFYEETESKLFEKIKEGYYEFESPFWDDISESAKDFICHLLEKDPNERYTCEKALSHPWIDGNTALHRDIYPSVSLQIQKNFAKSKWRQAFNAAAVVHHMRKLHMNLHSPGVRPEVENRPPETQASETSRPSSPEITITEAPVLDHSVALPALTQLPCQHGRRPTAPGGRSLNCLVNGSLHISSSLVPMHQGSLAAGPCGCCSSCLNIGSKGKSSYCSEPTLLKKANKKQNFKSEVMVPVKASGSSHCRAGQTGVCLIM

[30] = target: JNK2 (Homo sapiens, UniProt P45984); experiment: KINOMEscan: JNK2; assay type: binding; conditions: 1000 nM, read-out: Percent Control
[31] = target: Endothelin ETB (Homo sapiens, UniProt P24530); experiment: Eurofins Diversity Panel; assay type: binding; conditions: hum, Conc. 10 μM
[32] = test system: Glutamate, NMDA, Agonism; experiment: Eurofins Diversity Panel; assay type: binding; conditions: rat, Conc. 10 μM
[33] = target: ALK(L1196M) (Homo sapiens, UniProt Q9UM73, L1196M); experiment: KINOMEscan: ALK(L1196M); assay type: binding; conditions: 1000 nM, read-out: Percent Control
Sequence of ALK(L1196M) (Q9UM73 19-1620 L1196M): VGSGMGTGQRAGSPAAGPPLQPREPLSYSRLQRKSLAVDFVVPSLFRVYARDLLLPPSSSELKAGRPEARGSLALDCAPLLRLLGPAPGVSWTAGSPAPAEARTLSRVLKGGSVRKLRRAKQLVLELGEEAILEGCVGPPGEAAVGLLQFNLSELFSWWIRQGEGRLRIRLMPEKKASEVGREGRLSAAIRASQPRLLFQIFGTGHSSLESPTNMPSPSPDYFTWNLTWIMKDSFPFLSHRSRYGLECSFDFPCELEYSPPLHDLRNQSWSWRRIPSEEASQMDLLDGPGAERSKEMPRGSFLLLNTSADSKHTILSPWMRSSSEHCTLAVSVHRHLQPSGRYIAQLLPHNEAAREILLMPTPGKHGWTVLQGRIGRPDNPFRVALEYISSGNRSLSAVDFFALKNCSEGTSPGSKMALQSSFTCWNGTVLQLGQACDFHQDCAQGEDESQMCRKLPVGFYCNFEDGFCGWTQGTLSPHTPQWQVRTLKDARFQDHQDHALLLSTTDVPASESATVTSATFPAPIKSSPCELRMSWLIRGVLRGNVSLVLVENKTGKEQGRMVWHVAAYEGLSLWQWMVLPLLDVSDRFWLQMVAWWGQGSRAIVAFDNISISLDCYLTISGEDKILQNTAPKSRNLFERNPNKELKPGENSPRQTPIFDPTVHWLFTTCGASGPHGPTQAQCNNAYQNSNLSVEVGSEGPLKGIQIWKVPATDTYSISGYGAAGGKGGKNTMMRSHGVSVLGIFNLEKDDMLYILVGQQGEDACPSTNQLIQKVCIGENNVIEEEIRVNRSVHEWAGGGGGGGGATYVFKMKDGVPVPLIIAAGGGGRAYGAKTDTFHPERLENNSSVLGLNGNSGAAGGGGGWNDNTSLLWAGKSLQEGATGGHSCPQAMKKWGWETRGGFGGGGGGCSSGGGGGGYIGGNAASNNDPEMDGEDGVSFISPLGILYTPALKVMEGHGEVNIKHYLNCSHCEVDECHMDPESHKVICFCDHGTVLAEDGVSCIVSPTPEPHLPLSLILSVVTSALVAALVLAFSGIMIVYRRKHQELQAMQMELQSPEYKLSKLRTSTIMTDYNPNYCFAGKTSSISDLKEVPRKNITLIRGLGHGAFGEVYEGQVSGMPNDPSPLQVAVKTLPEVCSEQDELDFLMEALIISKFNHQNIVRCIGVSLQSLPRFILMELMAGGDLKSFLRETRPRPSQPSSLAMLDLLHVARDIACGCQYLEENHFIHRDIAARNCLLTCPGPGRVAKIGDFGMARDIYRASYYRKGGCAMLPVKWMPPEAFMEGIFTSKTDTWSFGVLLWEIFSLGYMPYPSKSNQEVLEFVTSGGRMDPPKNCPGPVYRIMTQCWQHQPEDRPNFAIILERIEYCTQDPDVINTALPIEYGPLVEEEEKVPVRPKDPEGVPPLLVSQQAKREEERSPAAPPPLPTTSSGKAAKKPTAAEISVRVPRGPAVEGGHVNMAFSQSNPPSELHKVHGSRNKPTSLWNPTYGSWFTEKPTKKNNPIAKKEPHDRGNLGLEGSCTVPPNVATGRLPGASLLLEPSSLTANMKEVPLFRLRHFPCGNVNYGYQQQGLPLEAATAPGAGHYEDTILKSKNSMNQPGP

[34] = target: MET (Homo sapiens, UniProt P08581); experiment: KINOMEscan: MET; assay type: binding; conditions: 1000 nM, read-out: Percent Control
Sequence of MET (P08581 25-1390): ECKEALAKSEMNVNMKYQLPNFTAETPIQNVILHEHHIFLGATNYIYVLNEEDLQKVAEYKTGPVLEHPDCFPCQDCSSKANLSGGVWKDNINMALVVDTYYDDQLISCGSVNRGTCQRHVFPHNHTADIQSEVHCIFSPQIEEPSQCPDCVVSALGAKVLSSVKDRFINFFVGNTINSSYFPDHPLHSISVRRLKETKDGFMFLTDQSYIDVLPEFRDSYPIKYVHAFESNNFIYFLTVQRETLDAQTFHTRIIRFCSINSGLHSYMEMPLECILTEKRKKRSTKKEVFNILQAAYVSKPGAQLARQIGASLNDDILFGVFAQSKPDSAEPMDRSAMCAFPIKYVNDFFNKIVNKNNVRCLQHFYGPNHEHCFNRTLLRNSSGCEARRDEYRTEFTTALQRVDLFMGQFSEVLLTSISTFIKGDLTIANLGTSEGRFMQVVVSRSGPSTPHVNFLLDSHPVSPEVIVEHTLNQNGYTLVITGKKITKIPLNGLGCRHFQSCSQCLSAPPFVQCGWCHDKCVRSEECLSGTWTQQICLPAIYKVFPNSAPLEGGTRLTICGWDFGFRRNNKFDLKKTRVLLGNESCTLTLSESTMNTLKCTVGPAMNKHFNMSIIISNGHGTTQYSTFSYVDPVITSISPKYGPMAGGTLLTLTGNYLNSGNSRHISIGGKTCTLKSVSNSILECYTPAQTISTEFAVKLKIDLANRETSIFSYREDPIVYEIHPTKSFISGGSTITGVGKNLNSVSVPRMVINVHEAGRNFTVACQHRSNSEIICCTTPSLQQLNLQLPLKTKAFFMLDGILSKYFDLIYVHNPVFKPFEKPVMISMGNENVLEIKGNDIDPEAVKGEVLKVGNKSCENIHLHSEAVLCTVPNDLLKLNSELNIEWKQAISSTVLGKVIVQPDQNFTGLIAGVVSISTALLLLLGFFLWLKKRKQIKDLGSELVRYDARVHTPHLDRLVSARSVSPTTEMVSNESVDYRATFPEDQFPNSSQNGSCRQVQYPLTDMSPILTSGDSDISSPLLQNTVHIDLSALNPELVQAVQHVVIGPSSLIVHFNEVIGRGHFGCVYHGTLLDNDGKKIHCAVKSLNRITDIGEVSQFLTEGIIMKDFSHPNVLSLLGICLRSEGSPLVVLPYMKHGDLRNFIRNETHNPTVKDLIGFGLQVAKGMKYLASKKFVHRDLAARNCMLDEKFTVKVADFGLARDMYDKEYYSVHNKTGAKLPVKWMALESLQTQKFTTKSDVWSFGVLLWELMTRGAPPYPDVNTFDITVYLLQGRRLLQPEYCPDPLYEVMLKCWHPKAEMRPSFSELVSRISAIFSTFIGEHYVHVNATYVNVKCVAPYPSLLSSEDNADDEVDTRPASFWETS

[35] = target: ACVR1 (Homo sapiens, UniProt Q04771); experiment: KINOMEscan: ACVR1; assay type: binding; conditions: 1000 nM, read-out: Percent Control
[36] = target: DCAMKL3 (Homo sapiens, UniProt Q9C098); experiment: KINOMEscan: DCAMKL3; assay type: binding; conditions: 1000 nM, read-out: Percent Control
[37] = target: HIPK2 (Homo sapiens, UniProt Q9H2X6); experiment: KINOMEscan: HIPK2; assay type: binding; conditions: 1000 nM, read-out: Percent Control
[38] = target: RIOK2 (Homo sapiens, UniProt Q9BVS4); experiment: KINOMEscan: RIOK2; assay type: binding; conditions: 100 nM, read-out: Percent Control
[39] = target: ACVR2B (Homo sapiens, UniProt Q13705); experiment: KINOMEscan: ACVR2B; assay type: binding; conditions: 1000 nM, read-out: Percent Control
[40] = target: CLK1 (Homo sapiens, UniProt P49759); experiment: KINOMEscan: CLK1; assay type: binding; conditions: 1000 nM, read-out: Percent Control

What does the source list for `COc1cc(F)ccc1-c1cc(Nc2cc(CS(C)(=N)=O)ccn2)ncc1F` (stereo not shown) [VIP152]?
remaining binding at 1 µM [1]: 100%; remaining binding at 0.1 µM [2]: 95%; remaining binding at 0.1 µM [3]: 100%; inhibition at 10 µM [4]: 18%; remaining binding at 1 µM [5]: 88%; % Inh. [6]: 26%; remaining binding at 1 µM [7]: 91%; inhibitory capacity against GSK3α [8]: Inhibits; IC50 [9]: < 100 nM; remaining binding at 1 µM [10]: 97%; remaining binding at 0.1 µM [11]: 100%; remaining binding at 1 µM [12]: 81%; remaining binding at 0.1 µM [13]: 100%; inhibition at 10 µM [14]: -5%; remaining binding at 1 µM [15]: 82%; remaining binding at 1 µM [16]: 100%; remaining binding at 1 µM [17]: 95%; cytotoxicity [18]: significant levels of cytotoxicity; remaining binding at 1 µM [19]: 100%; remaining binding at 0.1 µM [20]: 100%; remaining binding at 1 µM [21]: 100%; remaining binding at 1 µM [22]: 65%; remaining binding at 0.1 µM [23]: 100%; remaining binding at 1 µM [24]: 98%; remaining binding at 1 µM [25]: 96%; remaining binding at 0.1 µM [26]: 100%; inhibition at 10 µM [27]: -4%; remaining binding at 1 µM [28]: 76%; remaining binding at 1 µM [29]: 89%; remaining binding at 1 µM [30]: 83%; inhibition at 10 µM [31]: 3%; % Inh. [32]: 3%; remaining binding at 1 µM [33]: 91%; remaining binding at 1 µM [34]: 26%; remaining binding at 1 µM [35]: 64%; remaining binding at 1 µM [36]: 100%; remaining binding at 1 µM [37]: 71%; remaining binding at 0.1 µM [38]: 100%; remaining binding at 1 µM [39]: 65%; remaining binding at 1 µM [40]: 71%
